Reference: US20130245355A1, “3-HETARYL-SUBSTITUTED PYRROLO[2,3 B]PYRIDINE DERIVATIVES AS PDK1 INHIBITORS” (MERCK PATENT GMBH, priority 2010, published 2013)

How the values were obtained:
PDK1 [1] = biological target: T1, PDK1 (Homo sapiens, UniProt O15530); test: Cellular testing of PDK1 kinase inhibitors in PC3 cells (Luminex, phospho-T308-PKB); assay type: cell-based; conditions: 30 min, serum-free
T1 construct: endogenous in cells; host or cells: PC3 cells
T1 sequence (O15530 1-556): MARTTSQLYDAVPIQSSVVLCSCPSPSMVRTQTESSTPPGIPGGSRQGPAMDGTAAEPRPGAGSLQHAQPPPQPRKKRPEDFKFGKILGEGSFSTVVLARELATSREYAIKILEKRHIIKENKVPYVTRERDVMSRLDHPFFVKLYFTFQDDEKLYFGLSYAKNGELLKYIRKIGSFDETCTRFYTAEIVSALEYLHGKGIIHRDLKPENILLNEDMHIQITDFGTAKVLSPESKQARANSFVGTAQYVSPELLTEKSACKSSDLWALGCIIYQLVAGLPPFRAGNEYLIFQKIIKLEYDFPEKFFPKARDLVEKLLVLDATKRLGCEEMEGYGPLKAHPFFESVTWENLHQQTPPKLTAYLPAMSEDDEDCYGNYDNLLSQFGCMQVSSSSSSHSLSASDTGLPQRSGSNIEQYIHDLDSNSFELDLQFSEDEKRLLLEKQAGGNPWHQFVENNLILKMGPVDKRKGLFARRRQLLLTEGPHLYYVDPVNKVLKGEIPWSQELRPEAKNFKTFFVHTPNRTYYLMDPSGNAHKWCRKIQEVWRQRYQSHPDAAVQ
Description: Method for the Cellular Testing of PDK1 Kinase Inhibitors in PC3 Cells.
The cellular assay for the determination of the PDK1 kinase activity is carried out as a Luminex assay in the 96-well format. PC3 cells are sown at 20,000 cells per well in 100 μl of medium (45% of […]/45% of Ham's F12/10% of FCS) and incubated on the following day for 30 min with a serial dilution of the test substance (7 concentrations) under serum-free conditions. The cells are subsequently lysed using 90 μl of lysis buffer (20 mM tris/HCl pH 8.0, 150 mM NaCl, 1% of NP40, 10% of glycerol, 1% of phosphatase inhibitor I, 1% of phosphatase inhibitor II, 0.1% of protease inhibitor cocktail III, 0.01% of benzonase) per well, and the lysates are separated off from insoluble cell constituents by means of centrifugation through a 96-well filter plate (0.65 μm). The lysates are incubated overnight at 4° C. with shaking with Luminex beads to which an anti-total PKB antibody is coupled. The detection is carried out on the following day by addition of a phospho-T308-PKB antibody and a species-specific […] secondary antibody. The detection of phospho T308-PKB is carried out by measurement in a Luminex100 instrument by determination of 100 events per cavity in a measurement time of 60 sec. As pharmacological blank, the signals obtained from cells which have been treated with 10 μM staurosporin are subtracted from all other batches. The control value used for maximum phosphorylation of PKB on T308 are the signals from cells which have only been treated with the solvent (0.3% of DMSO). The values of the batches treated with test substance are calculated therefrom as percentage of control, and IC50 values are determined by means of RS 1.

PDK1 [2] = biological target: T2, PDK1 (Homo sapiens, UniProt O15530); test: Test for the inhibition of PDK1 (flashplate, 33P-ATP); conditions: His6-PDK1 (1-50) 3.4 nM, 4 μM ATP, 30° C., 60 min; read-out: IC50 [PDK1] biochemical
T2 construct: His6 (N)
T2 sequence (O15530 51-556 limits assumed): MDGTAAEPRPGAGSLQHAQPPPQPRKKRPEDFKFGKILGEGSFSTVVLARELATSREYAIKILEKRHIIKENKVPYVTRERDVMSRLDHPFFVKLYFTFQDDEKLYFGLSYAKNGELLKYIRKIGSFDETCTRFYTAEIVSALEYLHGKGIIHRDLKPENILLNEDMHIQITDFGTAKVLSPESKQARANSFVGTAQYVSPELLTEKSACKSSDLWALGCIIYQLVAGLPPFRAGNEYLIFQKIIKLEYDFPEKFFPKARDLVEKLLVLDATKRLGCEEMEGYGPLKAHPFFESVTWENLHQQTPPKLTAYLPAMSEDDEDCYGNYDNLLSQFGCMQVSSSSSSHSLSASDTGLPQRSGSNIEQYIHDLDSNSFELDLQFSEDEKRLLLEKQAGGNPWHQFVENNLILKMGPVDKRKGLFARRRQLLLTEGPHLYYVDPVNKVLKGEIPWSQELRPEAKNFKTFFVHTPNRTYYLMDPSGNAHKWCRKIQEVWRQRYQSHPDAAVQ
Outline: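 His6-PDK1 (1-50) (3.4 nM) with biotinylated peptide substrate (400 nM) and 4 μM ATP plus ^33P-ATP, 60 min at 30° C; incorporated radioactivity counted. Blank from 100 nM staurosporin subtracted, activity expressed as % of compound-free control, IC50 derived from dilution series.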

Compound	IC50 (PDK1 [1])	IC50 (PDK1 [2])
CN[C@@H](c1ccccc1)c1nnc(-c2c[nH]c3ncc(-c4cnn(C)c4)cc23)o1 [A116]	1000 to 10000 nM	0.5 to 1000 nM
Cn1cc(-c2cnc3[nH]cc(-c4nnc(C(N)c5cc(F)cc(F)c5)o4)c3c2)cn1 (stereo not drawn) [A117]	1000 to 10000 nM	1000 to 10000 nM
Cn1cc(-c2cnc3[nH]cc(-c4nnc(C5(c6ccccn6)CC5)o4)c3c2)cn1 [A120]	1000 to 10000 nM	1000 to 10000 nM
Cn1cc(-c2cnc3[nH]cc(-c4n[nH]c(C5(c6ccc(Cl)nc6)CC5)n4)c3c2)cn1 [A122, 3-{5-[1-(6-chloropyridin-3-yl)cyclopropyl]-1H-1,2,4-triazol-3-yl}-5-(1-methyl-1H-pyrazol-4-yl)-1H-pyrrolo[2,3-b]pyridine]	1000 to 10000 nM	1000 to 10000 nM
Cn1cc(-c2cnc3[nH]cc(-c4nnc(C5(c6ccc(Cl)nc6)CC5)o4)c3c2)cn1 [A123, 3-{5-[1-(6-chloropyridin-3-yl)cyclopropyl]-1,3,4-oxadiazol-2-yl}-5-(1-methyl-1H-pyrazol-4-yl)-1H-pyrrolo[2,3-b]pyridine]	1000 to 10000 nM	1000 to 10000 nM
Cn1cc(-c2cnc3[nH]cc(-c4nnc(C5(c6cccnc6)CC5)o4)c3c2)cn1 [A124, 5-(1-methyl-1H-pyrazol-4-yl)-3-[5-(1-pyridin-3-ylcyclopropyl)-1,3,4-oxadiazol-2-yl]-1H-pyrrolo[2,3-b]pyridine]	1000 to 10000 nM	0.5 to 1000 nM
Cn1cc(-c2cnc3[nH]cc(-c4n[nH]c(C5(c6cccnc6)CC5)n4)c3c2)cn1 [A125, 5-(1-methyl-1H-pyrazol-4-yl)-3-[5-(1-pyridin-3-ylcyclopropyl)-1H-1,2,4-triazol-3-yl]-1H-pyrrolo[2,3-b]pyridine]	1000 to 10000 nM	0.5 to 1000 nM
Cn1cc(-c2cnc3[nH]cc(-c4n[nH]c(C5(c6ccc(=O)[nH]c6)CC5)n4)c3c2)cn1 [A126, 5-(1-{5-[5-(1-methyl-1H-pyrazol-4-yl)-1H-pyrrolo[2,3-b]pyridin-3-yl]-2H-1,2,4-triazol-3-yl}cyclopropyl)-1H-pyridin-2-one]	1000 to 10000 nM	0.5 to 1000 nM
COc1ccc(C2(c3nc(-c4c[nH]c5ncc(-c6cnn(C)c6)cc45)n[nH]3)CC2)cn1 [A127, 3-{5-[1-(6-methoxypyridin-3-yl)cyclopropyl]-1H-1,2,4-triazol-3-yl}-5-(1-methyl-1H-pyrazol-4-yl)-1H-pyrrolo[2,3-b]pyridine]	1000 to 10000 nM	1000 to 10000 nM
COC(=O)c1ccc(C(O)c2nnc(-c3c[nH]c4ncc(-c5cnn(C)c5)cc34)o2)c(Cl)c1 (stereo not drawn) [A128, methyl 3-chloro-4-(hydroxy-{5-[5-(1-methyl-1H-pyrazol-4-yl)-1H-pyrrolo[2,3-b]-pyridin-3-yl]-1,3,4-oxadiazol-2-yl}methyl)benzoate]	1000 to 10000 nM	1000 to 10000 nM
Cn1cc(-c2cnc3[nH]cc(-c4nnc(C(C)(O)c5ccccc5Cl)o4)c3c2)cn1 (stereo not drawn) [A132, I-(2-chlorophenyl)-1-{5-[5-(1-methyl-1H-pyrazol-4-yl)-1H-pyrrolo[2,3-b]pyridin-3-yl]-1,3,4-oxadiazol-2-yl}ethanol]	1000 to 10000 nM	0.5 to 1000 nM

Second part, the compound after the results:

IC50 (PDK1 [1])	IC50 (PDK1 [2])	Compound
1000 to 10000 nM	0.5 to 1000 nM	Cn1cc(-c2cnc3[nH]cc(-c4cc(C(O)(c5ccnnc5)C(C)(C)C)on4)c3c2)cn1 (stereo not drawn) [A100, 2,2-dimethyl-1-{3-[5-(1-methyl-1H-pyrazol-4-yl)-1H-pyrrolo-[2,3-b]pyridin-3-yl]isoxazol-5-yl}-1-pyridazin-4-ylpropan-1-ol]
1000 to 10000 nM	0.5 to 1000 nM	Cn1cc(-c2cnc3[nH]cc(-c4cc(CO)on4)c3c2)cn1 [A105]
1000 to 10000 nM	0.5 to 1000 nM	Cn1cc(-c2cnc3[nH]cc(-c4cc(C(O)c5ccccc5)nn4CCO)c3c2)cn1 (stereo not drawn) [A107]
1000 to 10000 nM	0.5 to 1000 nM	Cn1cc(-c2cnc3[nH]cc(-c4nnc(C5(c6cccnc6)CCCC5)o4)c3c2)cn1 [A110]
0.5 to 1000 nM	0.5 to 1000 nM	Cn1cc(-c2cnc3[nH]cc(-c4nnc([C@H](N)c5ccccc5Cl)o4)c3c2)cn1 [A112]
1000 to 10000 nM	0.5 to 1000 nM	Cn1cc(-c2cnc3[nH]cc(-c4nnc([C@@H](N)c5ccccc5Cl)o4)c3c2)cn1 [A113]
0.5 to 1000 nM	0.5 to 1000 nM	Cn1cc(-c2cnc3[nH]cc(-c4nnc(C(N)c5ccccc5Cl)o4)c3c2)cn1 (stereo not drawn) [A118]
